Test results as given in BindingDB's records for doi:10.1021/acs.jmedchem.5b00079 (Saarland University and Helmholtz Institute For …, 2015).

Biological target: T1, Cytochrome P450 11B1, mitochondrial (Homo sapiens, UniProt P15538)
T1 sequence (P15538 whole entry): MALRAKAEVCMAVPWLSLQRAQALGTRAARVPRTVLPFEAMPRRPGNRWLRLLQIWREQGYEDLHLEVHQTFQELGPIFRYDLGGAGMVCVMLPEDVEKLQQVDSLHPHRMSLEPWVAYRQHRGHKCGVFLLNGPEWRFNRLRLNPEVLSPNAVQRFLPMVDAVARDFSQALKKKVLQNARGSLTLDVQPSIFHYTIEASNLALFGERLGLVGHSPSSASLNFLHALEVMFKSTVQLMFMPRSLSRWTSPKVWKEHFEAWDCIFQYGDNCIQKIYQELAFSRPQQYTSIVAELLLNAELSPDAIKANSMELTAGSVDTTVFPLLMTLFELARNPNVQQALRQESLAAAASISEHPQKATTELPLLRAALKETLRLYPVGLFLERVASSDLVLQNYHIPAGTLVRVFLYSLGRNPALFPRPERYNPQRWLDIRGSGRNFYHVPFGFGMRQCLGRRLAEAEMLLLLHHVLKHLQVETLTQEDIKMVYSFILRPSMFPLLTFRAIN
Assay: Inhibition of human CYP11B1 expressed in V79 MZh cells using [14C]-deoxycorticosterone substrate incubated for 6 hrs by HPTLC method

- IC50: 29.5 µM
SMILES: Cc1nnc2n1-c1c(F)cc(-c3cncc(F)c3)cc1CC2
